Patent publication EP0399814A2, “Phenol derivatives for promoting human nerve growth factor” (Sankyo Company Limited, priority 1989, dated 1990)

Test system: L-M cells
Test: NGF production and secretion by L-M cells (Furukawa method), NGF level in medium determined by enzyme immunoassay
Format: cell-based, mouse
Conditions: Mus musculus; compounds of the invention at 10 γ/ml; L-M cells cultured 24 hours; NGF amount relative to cells not treated with test compound; read-out: % Control
From the text: Furukawa et al. reported that L-M cells of a fibroblast cell line from mouse connective tissue can produce and secrete a relatively large amount of NGF, and that catecholamines accelerate such production and secretion of NGF (J. Biol. Chem., 261, 6039-6047, 1986). Following the test method described in this Furukawa paper, but using the compounds of the invention and recognized NGF promoters epinephrine, isoproterenol, L-DOPA, and caffeic acid, NGF production and secretion activities were examined. The test compounds of this invention were employed at 10 γ/ml, and the known compounds were employed at 20 γ/ml.
Culture medium 199 containing 0.5% peptone was used for culturing L-M cells (for the culture medium 199, see, for instance, Morgan et al., Proc. Soc. Exp. Biol. Med., 73, 1 (1950) or Morgan et al. J. Natl. Cancer Inst., 16, 557 (1955). About 5 x 10⁴ of L-M cells were placed in each well of a culture plate with 24 wells, and cultured using a CO₂ incubator (37°C, 5% CO₂) until confluence. After removing the culture medium, the cultured cells were washed once with 199 culture medium containing 0.5% bovine serum albumin (Fraction V, Sigma). The test compounds were added to a specified concentration to a 199 culture medium containing 0.5% bovine serum albumin, and treated with 0.5 ml of L-M cells. After culturing the L-M cells in a CO₂ incubator for 24 hours, the medium was recovered and the NGF level was determined.
NGF was determined using an enzyme immunoassay (Korshing and Thoenen, Proc. Natl. Acad. Sci. USA, 80, 3513-3516, 1983). A solution (each 75 µl) of anti-mouse β-NGF antibody (0.3 µg/ml, pH 9.6; Boehringer Mannheim) was pipetted into each well of a polystyrene plate with 96 wells. After allowing the plate to stand at room temperature for an hour, the antibody was removed by washing three times with detergent solution. A solution (50 µl) of standard β-NGF (Wako Pure Chemical Industries Ltd.) or the recovered medium (50 µl) for each of the test compounds was pipetted into each well. After allowing the plate to stand at room temperature for 6 - 8 hours, the standard β-NGF or test solution was removed and each well was washed three times. A solution (50 µl) of β-NGF monoclonal antibody (100 mU/ml, pH 7.0; Boehringer Mannheim) labelled with β-galactosidase was pipetted into each well. After allowing the plate to stand at 4°C for 15 - 18 hours, enzyme labelled antibody was removed and the wells washed three times followed by pipetting a solution (100 µl) of chlorophenol red-β-D-galactopyranoside (1 mg/ml, pH 7.3; Boehringer Mannheim) into each well. Colour was allowed to develop (2 - 3 hours at room temperature), and the absorbance was determined at 570 nm. The amount of NGF was calculated from a standard curve. The results are expressed as a relative value (%) which is relative to the amount of NGF produced and secreted by cells treated not with the test compounds. The numerical values (% control) are expressed by the mean value in the 3 wells of the control (without addition of the test compounds).

Structure (SMILES) | activity at 10 µg/mL
CC(=O)Oc1cc2c(cc1OC(C)=O)CC(C(=O)Nc1ccc(Cl)cc1Cl)CC2 (centres unmarked) [Example 91, N-(2,4-dichlorophenyl)-6,7-diacetoxy-1,2,3,4-tetrahydro-2-naphthamide] | 575%
CC(=O)Oc1cc2c(cc1OC(C)=O)CC(C(=O)NC13CC4CC(CC(C4)C1)C3)CC2 (centres unmarked) [Example 93, N-(1-adamantyl)-6,7-diacetoxy-1,2,3,4-tetrahydro-2-naphthamide] | 941%
CC(=O)Oc1cc2c(cc1OC(C)=O)CCC(C(=O)Nc1ccc(Cl)cc1Cl)=C2 [Example 94, N-(2,4-dichlorophenyl)-6,7-diacetoxy-3,4-dihydro-2-naphthamide] | 459%
CC(=O)Oc1cc2c(cc1OC(C)=O)CCC(C(=O)Nc1cnc3ccccc3c1)=C2 [Example 95, N-(3-quinolyl)-6,7-diacetoxy-3,4-dihydro-2-naphthamide] | 341%
CC(=O)Oc1cc2c(cc1OC(C)=O)CCC(C(=O)NC13CC4CC(CC(C4)C1)C3)=C2 [Example 96, N-(1-adamantyl)-6,7-diacetoxy-3,4-dihydro-2-naphthamide] | 558%

Same assay, conditions: Mus musculus; known compounds at 20 γ/ml; L-M cells cultured 24 hours; NGF amount relative to cells not treated with test compound; read-out: % Control

Structure (SMILES) | activity at 20 µg/mL
N[C@@H](Cc1ccc(O)c(O)c1)C(=O)O [L-DOPA, reference compound] | 117 ± 7%
O=C(O)/C=C/c1ccc(O)c(O)c1 [caffeic Acid, caffeic acid, reference compound] | 123 ± 14%
CNC[C@H](O)c1ccc(O)c(O)c1 [epinephrine, reference compound] | 140 ± 24%
CC(C)NCC(O)c1ccc(O)c(O)c1 (centres unmarked) [isoproterenol, reference compound] | 168 ± 22%

Same assay, conditions: compounds of the invention at 10 γ/ml; L-M cells cultured 24 hours; NGF amount relative to cells not treated with test compound

Structure (SMILES) | % Control
CC(=O)Oc1ccc(CCC(=O)Nc2cc(Cl)ccc2Cl)cc1OC(C)=O [Example 1, N-(2,5-dichlorophenyl)-3,4-diacetoxyphenylpropionamide] | 201%
CC(=O)Oc1ccc(CCCC(=O)NC23CC4CC(CC(C4)C2)C3)cc1OC(C)=O [Example 46, N-(1-adamantyl)-3,4-diacetoxyphenylbutyrylamide] | 939%
